In US20250263436A1, “BROAD-SPECTRUM ANTIVIRAL DRUG FOR ENTEROVIRUS, AND APPLICATION” (WUHAN INSTITUTE OF VIROLOGY, CHINESE ACADEMY OF SCIENCES, priority 2020, published 2025):
Where “and” joins values, the source holds several entries; their conditions need not be identical. Equal values may be shown once.

Tests used:
EV71 2C protein = target: T1, EV71 2C protein (Human enterovirus 71, UniProt Q66478); assay: Inhibition of helicase activity of EV71 2C protein in vitro (dsRNA unwinding); assay type: biochemical; conditions: MBP-EV71 2C; dsRNA substrate; 37° C. 50 min
T1 construct: In vitro expression and purification of EV71 2C protein; made in house; host or cells: Sf9 (Spodoptera frugiperda) cells infected with recombinant baculovirus
T1 sequence (Q66478 1112-1440 limits assumed): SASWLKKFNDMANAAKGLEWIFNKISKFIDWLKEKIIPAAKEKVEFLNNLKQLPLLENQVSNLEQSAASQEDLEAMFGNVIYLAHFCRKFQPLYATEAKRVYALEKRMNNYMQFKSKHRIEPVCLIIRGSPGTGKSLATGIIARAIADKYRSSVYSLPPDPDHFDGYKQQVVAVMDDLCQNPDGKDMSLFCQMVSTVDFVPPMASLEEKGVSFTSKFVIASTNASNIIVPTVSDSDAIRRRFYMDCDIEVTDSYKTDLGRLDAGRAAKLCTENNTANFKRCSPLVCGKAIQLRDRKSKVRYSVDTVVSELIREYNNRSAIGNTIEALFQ
Procedure: (1) A strand labeled with HEX at a concentration of 0.2 pmol/μL was added with a complementary strand RNA at the same concentration to prepare a HEX-labeled double-stranded dsRNA substrate by annealing.
(2) Annealing process: the reaction system was kept at 75° C. for 3 min, cooled to 25° C. at a rate of 1° C. per minute, and then kept at 25° C. for 2 min.
(3) The target protein and the double-stranded substrate were prepared according to the standard unwinding experiment reaction system. 5 μg of polypeptide RQ and control TAT were added respectively, and single and double strands controls were set. The single strand sample was boiled at 75° C. for 3 min and then placed on ice for 2 min.
(4) The prepared system was mixed well and then placed at 37° C. for 50 min of reaction.
(5) A mixture obtained after the reaction was subjected to electrophoresis.
(6) Finally, Typhoon 9500 was used for direct scan to obtain a HEX signal.
During electrophoresis, the single strand ran faster than the double strand. Therefore, if the MBP-2C protein had helicase activity, it can unwind the double-stranded dsRNA substrate to release a single-stranded RNA, and then the lane would show two bands, upper and lower. The single-stranded RNA (lane 2) prepared by boiling at 75° C. was used as a positive control. The reaction without protein added (lane 1) was used as a negative control.

EV71 [1] = assay: Inhibitory activity on EV71 in RD cells by CCK8 method; assay type: cell-based, enterovirus 71 (EV71); conditions: for Inhibition rate on EV71 virus (%): RD cells, 0.1 MOI, 24 h, CCK8
Procedure: (1) RD cells were plated in a 96-well plate at 100 μL per well.
(2) When the cells grew to a confluence of 70%-80%, the DMEM medium containing 10% serum was replaced with a DMEM medium containing 2% serum.
(§1) (3) The polypeptide drug was gradiently diluted with the DMEM containing 2% FBS into concentrations of 0.15625 μM, 0.3125 μM, 0.625 μM, 1.25 μM, 2.5 μM, and 5 μM, and then added to a new 96-well plate at 100 μL per well, with 3 replicate wells for each concentration.
(4) The diluted virus was added to the above wells at 100 μL per well. The wells with no drug and no virus added and the wells with no drug but virus added were set as controls respectively, with a final concentration of virus of 0.1 MOI.
(4) The mixture was transferred into the 96-well plate plated with cells for another 24 h of culture, and the inhibitory activity of the polypeptide on the virus was determined by a CCK8 kit.
(5) The inhibition rates of different concentrations of the polypeptides on virus infection were calculated according to a calculation formula of: inhibition rate of polypeptide=(well with drug-well with virus)×100%/(well with no drug-well with virus).
as §1, with “concentration. (4) The diluted virus was added to the above wells at 100 μL per well. The wells with no drug and no virus added and the wells with no drug but virus added were set as controls respectively, with a final concentration of virus of 0.1 MOI.” for “concentration.”

EV71 [2] = assay: Inhibition of EV71 in Vero cells (viral RNA, qRT-PCR); assay type: cell-based, enterovirus 71 (EV71); conditions: for Percentage of viral RNA in Vero cells (%): EV71, 24 h after infection
Procedure: (1) Different cells were plated in a 24-well plate.
(2) When the cells grew to a confluence of 70%-80%, the DMEM medium containing 10% serum was replaced with a DMEM medium containing 2% serum (the DMEM medium containing 2% serum was added in each well at an amount of 0.5 mL), and 5 μL of EV71 virus of 1×10^6 PFU/mL was added to each well.
(3) After 1 h, different polypeptides (RQ or control TAT) with final concentrations of 0.3125 μM, 0.625 μM, 1.25 μM, 2.5 μM, and 5 μM were added respectively. The group without polypeptide added was used as a control.
(4) The samples were collected 24 h after the infection of EV71 virus, and RNA was extracted with the total RNA extraction kit.
(5) The supernatant was discarded, then 350 μL of TRK lysate was added to each well, and the plate was put on a shaker for 5 min.
(6) 350 μL of 70% ethanol (DEPC) was added to each well, and then the plate was put on a shaker for 5 min.
(7) The solution in each well was transferred to a RNA extraction column for 1 min of centrifugation at 12000 g.
(8) The solution obtained in the recovery tube was reloaded on the column again for 1 min of centrifugation at 12000 g.
(9) RNA washing buffer 1 was added in the column for 30 s of centrifugation at 12000 g.
(10) RNA washing buffer 2 was added in the column for 1 min of centrifugation at 12000 g.
(11) Step (10) was repeated.
(12) The column alone was centrifuged at 12000 g for 2 min to completely remove the residual RNA washing buffer.
(13) 50 μL of DEPC water was added to the column for 2 min of centrifugation at 12000 g.
(14) 2 μL of RNA sample was subjected to a fluorescence quantitative experiment using the one step qRT-PCR kit.
(1) Vero E6 cells were plated in a 24-well plate.
(3) After 1 h, different polypeptides (LQ or SQ) with final concentrations of 0.3125 μM, 0.625 μM, 1.25 μM, 2.5 μM, and 5 μM were added respectively. The group without polypeptide added was used as a control.

N=C(N)NCCC[C@H](NC(=O)[C@H](CCCNC(=N)N)NC(=O)[C@H](CCCNC(=N)N)NC(=O)[C@H](CCC(N)=O)NC(=O)[C@H](CCCNC(=N)N)NC(=O)[C@H](CCCNC(=N)N)NC(=O)[C@H](CCCCN)NC(=O)[C@H](CCCCN)NC(=O)[C@H](CCCNC(=N)N)NC(=O)CNC(=O)[C@@H](N)Cc1ccc(O)cc1)C(=O)O [TAT, YGRKKRRQRRR]
helicase activity of EV71 2C (EV71 2C protein): did not affect the helicase activity of 2C | antiviral activity (EV71 [1]; EV71 in RD cells, CCK8 method): no antiviral activity | Inhibition rate on EV71 virus (%) (EV71 [1]; polypeptide 0.15625 μM): 1.38% and 5.231% and 2.294% | Inhibition rate on EV71 virus (%) (EV71 [1]; polypeptide 0.3125 μM): 2.463% and 5.242% and 6.282% | Inhibition rate on EV71 virus (%) (EV71 [1]; polypeptide 0.625 μM): 8.374% and 2.34% and 7.234% | Inhibition rate on EV71 virus (%) (EV71 [1]; polypeptide 1.25 μM): 8.365% and 3.237% and 6.203% | Inhibition rate on EV71 virus (%) (EV71 [1]; polypeptide 2.5 μM): 7.373% and 4.241% and 8.213% | Percentage of viral RNA in Vero cells (%) (EV71 [2]; polypeptide 0.3125 μM): 115.6133% and 93.75% and 91.92% | Percentage of viral RNA in Vero cells (%) (EV71 [2]; polypeptide 0.625 μM): 121.4818% and 94.87% and 149.0928% | Percentage of viral RNA in Vero cells (%) (EV71 [2]; polypeptide 1.25 μM): 111.6527% and 97.24% and 100.8214% | Percentage of viral RNA in Vero cells (%) (EV71 [2]; polypeptide 2.5 μM): 125.8799% and 103.6078% and 137.9907% | Percentage of viral RNA in Vero cells (%) (EV71 [2]; polypeptide 5 μM): 136.8661% and 104.0616% and 88.68% | anti-EV71 effect (EV71 [2]; Vero cells): no anti-EV71 effect
